Data taken from publication PMC9609428, “Rational Design and Synthesis of New Selective COX-2 Inhibitors with In Vivo PGE2-Lowering Activity by Tethering Benzenesulfonamide and 1,2,3-Triazole Pharmacophores to Some NSAIDs” (Pharmaceuticals, 2022).
Values joined by “and” are separate entries in the source; they are usually repeats but may differ in a detail not shown here. Identical values can stand only once. Marks after values point to notes of the source that are not given here.

What was measured:
[1] = biological target: T1, (Ovis aries, UniProt P05979); test: In vitro human COX-1 enzymatic inhibitory activity (Cayman COX inhibitor screening assay kit); format: biochemical; conditions: mean ± SEM of triplicate determinations
T1 construct: purchased Cayman Chemicals Inc., Ann Arbor, MI, USA 560131
T1 sequence (P05979 25-600): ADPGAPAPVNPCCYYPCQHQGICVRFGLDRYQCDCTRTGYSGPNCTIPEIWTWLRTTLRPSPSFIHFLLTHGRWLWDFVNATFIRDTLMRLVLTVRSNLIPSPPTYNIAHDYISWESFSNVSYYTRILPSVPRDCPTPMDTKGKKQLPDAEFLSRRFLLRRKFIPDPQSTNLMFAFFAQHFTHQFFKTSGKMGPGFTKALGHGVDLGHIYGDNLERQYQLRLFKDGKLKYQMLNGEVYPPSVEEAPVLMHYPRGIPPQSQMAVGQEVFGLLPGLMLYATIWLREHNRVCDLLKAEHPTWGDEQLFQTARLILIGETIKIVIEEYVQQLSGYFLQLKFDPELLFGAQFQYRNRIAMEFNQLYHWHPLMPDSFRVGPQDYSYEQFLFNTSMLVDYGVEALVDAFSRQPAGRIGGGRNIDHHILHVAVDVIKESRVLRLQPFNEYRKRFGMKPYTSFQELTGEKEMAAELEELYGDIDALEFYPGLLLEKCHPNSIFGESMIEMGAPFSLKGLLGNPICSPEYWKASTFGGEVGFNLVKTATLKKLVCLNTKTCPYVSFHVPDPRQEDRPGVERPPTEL
Method: (§1) Inhibitory activities were defined as a test compound concentration achieving 50% human COX-1 or human COX-2 inhibition. The selectivity of compounds was referred to as a compound’s selectivity index values calculated as IC50 (COX-1)/IC50 (COX-2).
(§2) In vitro human COX-1 and human COX-2 enzymatic inhibitory activity of the tested compounds as well as the reference drugs was carried out according to the previously mentioned procedures; for details, see Page S15, Supplementary File.
(§3) 4.2. Biological screening
(§4) 4.2.1. In vitro human COX-1 and human COX-2 enzymatic inhibitory activities In vitro human COX-1 and human COX-2 enzymatic inhibitory activity of the tested compounds as well as the reference drugs was carried out according to the previously mentioned procedures [1][2]depending on Cayman colorimetric COX (ovine) inhibitor screening assay kit (Catalog No.
(§5) All reagents, test solutions and experimental procedures were performed in correspondence to both the manufacturer’s instructions and previously reported methods. Briefly, […] of different concentrations of tested compound solutions were added to a series of supplied reaction buffer solutions (960 µL, 0.1 M Tris-HCl, pH 8.0 containing 5 mM EDTA and 2 mM phenol) with either COX-1 or COX-2 (10 µL) enzyme in the presence of heme (10 µL). 10 µL of Arachidonic Acid (100 µM) solution were added to the mixtures of the enzyme and tested compounds, After incubating for 5 min at 25 °C followed by stopping COX reaction by adding of 50 µL of 1 M HCl. Moreover, after adding 100 µL of saturated stannous chloride solution, the absorbance was measured spectrophotometrically using plate reader. measuring the […]
(§6) percentage of human COX-1 or human COX-2 enzymatic inhibition of five different concentrations of each compound and then concentration-inhibition response curve were plotted to obtain IC50 values(three determinations). […]

human COX-2 = biological target: T2, human COX-2 (Homo sapiens, UniProt P35354); test: In vitro human COX-2 enzymatic inhibitory activity (Cayman COX inhibitor screening assay kit); format: biochemical; conditions: for SI COX-1/COX-2: COX-2 selectivity index: COX-1 IC50/COX-2 IC50; for IC50: mean ± SEM of triplicate determinations
T2 construct: purchased Cayman Chemicals Inc., Ann Arbor, MI, USA 560131
T2 sequence (P35354 18-604): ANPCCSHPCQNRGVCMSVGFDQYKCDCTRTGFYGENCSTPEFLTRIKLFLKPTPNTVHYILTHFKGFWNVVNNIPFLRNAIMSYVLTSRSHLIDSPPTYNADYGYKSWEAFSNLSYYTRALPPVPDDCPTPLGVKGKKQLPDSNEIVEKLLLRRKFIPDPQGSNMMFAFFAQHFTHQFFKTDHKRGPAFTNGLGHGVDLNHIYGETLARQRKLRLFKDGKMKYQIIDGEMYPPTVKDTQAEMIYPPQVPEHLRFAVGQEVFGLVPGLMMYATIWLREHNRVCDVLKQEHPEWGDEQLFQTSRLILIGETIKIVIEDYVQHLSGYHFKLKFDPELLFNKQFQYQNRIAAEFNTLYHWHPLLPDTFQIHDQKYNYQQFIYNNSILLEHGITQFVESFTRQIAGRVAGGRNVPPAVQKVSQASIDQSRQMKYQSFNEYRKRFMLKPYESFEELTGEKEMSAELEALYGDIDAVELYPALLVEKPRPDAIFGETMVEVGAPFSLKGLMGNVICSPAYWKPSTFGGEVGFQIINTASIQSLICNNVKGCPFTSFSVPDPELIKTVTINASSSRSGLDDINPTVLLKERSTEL
Method: as §1, §2, §3, §4, §5, §6

[2] = tested on: carrageenan-induced paw edema; test: In vivo carrageenan-induced paw edema in mice; conditions: for Thickness of Edema, 0 h / percentage anti-inflammatory activity (AI%), 2 h / Thickness of Edema, 2 h / percentage anti-inflammatory activity (AI%), 4 h / Thickness of Edema, 4 h / percentage anti-inflammatory activity (AI%), 6 h / Thickness of Edema, 6 h / percentage anti-inflammatory activity (AI%), 8 h / Thickness of Edema, 8 h: 10 µmol/kg b.wt po; for Thickness of Edema, 0 h / Thickness of Edema, 2 h / Thickness of Edema, 4 h / Thickness of Edema, 6 h / Thickness of Edema, 8 h: mean ± SEM, n = 5; for percentage anti-inflammatory activity (AI%), 2 h / Thickness of Edema, 2 h: 2 h after carrageenan; for percentage anti-inflammatory activity (AI%), 4 h / Thickness of Edema, 4 h: 4 h after carrageenan; for percentage anti-inflammatory activity (AI%), 6 h / Thickness of Edema, 6 h: 6 h after carrageenan; for percentage anti-inflammatory activity (AI%), 8 h / Thickness of Edema, 8 h: 8 h after carrageenan; for ED50: Mus musculus, paw edema inhibition 8 h after carrageenan, doses 5, 10, 20, 30 and 40 µmol/kg, read-out: ED50 (95% Confidence Level)
prostaglandin E2 (PGE2) = test: In vivo estimation of rat serum prostaglandin E2 (PGE2); conditions: carrageenan-injected rats, 10 µmol/kg b.wt po, after 8 h; for PGE2 Serum Conc.: mean ± SEM, n = 5
Method: Measuring plasma levels of prostaglandin E2 is one of the substantial parameters in confirming the in vivo COX-2 inhibition.
(approved by HU-IACUC). For more details, see Page S16, Supplementary File. […]
4.2.4. Estimation of rat serum prostaglandin E2 (PGE2) […]
procedure using EIA PGE2 kit (Aldrich, Steinheim, Germany). The kits as well as blood samples were […]
to a monoclonal antibody to PGE2 in kit. Excess reagents were removed followed by adding the substrate was added and incubated for short time. When a yellow color generate the optical density […]

Structure (SMILES) | IC50 [1] [nM] | SI COX-1/COX-2 (human COX-2) | IC50 (human COX-2) [nM] | Thickness of Edema, 0 h [2] [mm] | percentage anti-inflammatory activity (AI%), 2 h [2] [%] | Thickness of Edema, 2 h [2] [mm] | percentage anti-inflammatory activity (AI%), 4 h [2] [%] | Thickness of Edema, 4 h [2] [mm] | percentage anti-inflammatory activity (AI%), 6 h [2] [%] | Thickness of Edema, 6 h [2] [mm] | percentage anti-inflammatory activity (AI%), 8 h [2] [%] | Thickness of Edema, 8 h [2] [mm] | ED50 [2] [µmol/kg] | % Inhibition of PGE2 production (prostaglandin E2 (PGE2)) [%] | PGE2 Serum Conc. (prostaglandin E2 (PGE2)) | % Inhibition of PGE2 production (prostaglandin E2 (PGE2); listed as celecoxib) [%]
Cc1ccnc(NS(=O)(=O)c2ccc(N=[N+]=[N-])cc2)n1 [Compound 1d, 4-Azido-N-(4-methylpyrimidin-2-yl)benzenesulfonamide] | 4600 ± 115 | 46 | 100 ± 3.3 |  |  |  |  |  |  |  |  |  |  |  |  | 
CC(=NNC(=O)c1ccccc1O)c1nnn(-c2ccc(S(=O)(=O)Nc3nccc(C)n3)cc2)c1C [Compound 6j, 4-(4-(1-(2-(2-Hydroxybenzoyl)hydrazineylidene)ethyl)-5-methyl-1H-1,2,3-triazol-1-yl)-N-(4-methylpyrimidin-2-yl)benzenesulfonamide] | 12500 ± 57.7 | 312 and 312.5 | 40 ± 0.6 | 2.08 ± 0.007 | 73.51 | 2.48 ± 0.005 | 82.32 | 2.37 ± 0.009 | 88.44 | 2.28 ± 0.011 | 91.21 | 2.24 ± 0.009 | 13.4 | 86.34 | 100.435 ± 5.66 ^c,d pg/mL | 
Cc1ccc(-c2cc(C(F)(F)F)nn2-c2ccc(S(N)(=O)=O)cc2)cc1 [Celecoxib, celecoxib, reference compound] |  |  |  | 2.10 ± 0.005 | 70.86 | 2.54 ± 0.007 | 79.27 | 2.44 ± 0.011 | 87.28 | 2.32 ± 0.010 | 89.01 | 2.30 ± 0.009 | 16.2 | 78.62 | 157.245 ± 7.33 ^c,d pg/mL | 78.62
CC(=NNC(=O)Cc1ccccc1Nc1c(Cl)cccc1Cl)c1nnn(-c2ccc(S(=O)(=O)Nc3nccs3)cc2)c1C [Compound 6e, 4-(4-(1-(2-(2-(2-((2,6-Dichlorophenyl)amino)phenyl)acetyl)hydrazineylidene)ethyl)-5-methyl-1H-1,2,3-triazol-1-yl)-N-(thiazol-2-yl)benzenesulfonamide] | 10230 ± 33.3 | 204 and 204.6 | 50 ± 0.6 | 2.12 ± 0.007 | 58.28 | 2.75 ± 0.008 | 68.90 | 2.63 ± 0.010 | 75.72 | 2.54 ± 0.009 | 78.02 | 2.52 ± 0.006 | 18.2 | 74.80 | 185.329 ± 6.79 ^c,d pg/mL | 
CC(=NNC(=O)C(C)c1ccc(CC(C)C)cc1)c1nnn(-c2ccc(S(=O)(=O)Nc3nccs3)cc2)c1C (stereo not shown) [Compound 6b, 4-(4-(1-(2-(2-(4-Isobutylphenyl)propanoyl)hydrazineylidene)ethyl)-5-methyl-1H-1,2,3-triazol-1-yl)-N-(thiazol-2-yl)benzenesulfonamide] | 13170 ± 120 | 329 and 329.25 | 40 ± 0.7 | 2.14 ± 0.006 | 86.75 | 2.34 ± 0.009 | 94.51 | 2.23 ± 0.009 | 97.69 | 2.18 ± 0.009 | 99.45 | 2.15 ± 0.007 | 11.7 | 90.70 | 68.388 ± 7.13 ^c,d pg/mL | 
O=C(O)Cc1ccccc1Nc1c(Cl)cccc1Cl [Diclofenac, diclofenac, reference compound] |  |  |  | 2.08 ± 0.006 | 41.72 | 2.96 ± 0.009 | 55.49 | 2.81 ± 0.009 | 67.63 | 2.64 ± 0.01 | 72.53 | 2.58 ± 0.01 | 18.4 | 72.27 | 203.973 ± 6.35 ^c,d pg/mL | 
[N-]=[N+]=Nc1ccc(S(=O)(=O)Nc2ncccn2)cc1 [Compound 1c, 4-Azido-N-(pyrimidin-2-yl)benzenesulfonamide] | 5930 ± 88.2 | 65.89 | 90 ± 0.6 |  |  |  |  |  |  |  |  |  |  |  |  | 
